Experimental data reported in patent US9169254B2, “Spiroimidazolone derivative” (Chugai Seiyaku Kabushiki Kaisha, priority 2009, dated 2015).

Target: T1, human PTH1 receptor (Homo sapiens, UniProt Q03431)
T1 sequence (Q03431 27-593): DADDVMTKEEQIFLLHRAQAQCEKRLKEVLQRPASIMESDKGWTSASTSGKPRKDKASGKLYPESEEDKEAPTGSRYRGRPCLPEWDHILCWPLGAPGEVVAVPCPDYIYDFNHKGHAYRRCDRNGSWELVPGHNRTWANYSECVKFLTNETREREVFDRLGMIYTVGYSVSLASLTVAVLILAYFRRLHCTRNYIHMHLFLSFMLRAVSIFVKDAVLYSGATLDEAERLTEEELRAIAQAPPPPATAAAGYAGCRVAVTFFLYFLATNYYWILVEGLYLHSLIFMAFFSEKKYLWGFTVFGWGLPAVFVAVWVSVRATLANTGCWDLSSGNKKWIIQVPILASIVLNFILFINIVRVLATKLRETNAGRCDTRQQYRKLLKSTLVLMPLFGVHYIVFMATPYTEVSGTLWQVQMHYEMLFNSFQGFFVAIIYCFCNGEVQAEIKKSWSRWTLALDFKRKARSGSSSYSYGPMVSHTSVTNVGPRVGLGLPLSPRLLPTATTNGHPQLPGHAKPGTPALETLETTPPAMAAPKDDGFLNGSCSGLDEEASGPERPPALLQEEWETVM
Assay: In vitro cAMP signal activity in HKRK-B7 cells (LLC-PK1 cells overexpressing the human PTH1 receptor)
Assay type: cell-based
Details: HKRK-B7 cells; compound at 1×10^−3 M; cAMP produced as percentage of that produced by hPTH(1-34) at 100 nM

cAMP production activity (%) | Compound
80% | Cc1cc(OC[C@H](O)CO)cc(C)c1/C=C/S(=O)(=O)N1CCC2(CC1)N=C(c1cccc(C(F)(F)F)c1F)NC2=O [Compound 243, 8-{(E)-2-[4-((R)-2,3-dihydroxy-propoxy)-2,6-dimethyl-phenyl]-ethenesulfonyl}-2-(2-fluoro-3-trifluoromethyl-phenyl)-1,3,8-triaza-spiro[4.5]dec-1-en-4-one]
83% | Cc1cc(C(=O)N2CCC(O)CC2)cc(C)c1/C=C/S(=O)(=O)N1CCC2(CC1)N=C(c1cccc(C(F)(F)F)c1F)NC2=O [Compound 244, 2-(2-fluoro-3-trifluoromethyl-phenyl)-8-{(E)-2-[4-(4-hydroxy-piperidine-1-carbonyl)-2,6-dimethyl-phenyl]-ethenesulfonyl}-1,3,8-triaza-spiro[4.5]dec-1-en-4-one]
34% | CC1(C)OC[C@H](Cn2ccc3c(/C=C/S(=O)(=O)N4CCC5(CC4)N=C(C4CCC(C(F)(F)F)CC4)NC5=O)cccc32)O1 (stereo partly drawn) [Compound 245, 8-{(E)-2-[1-((S)-2,2-dimethyl-[1,3]dioxolan-4-ylmethyl)-1H-indol-4-yl]-ethenesulfonyl}-2-(4-trifluoromethyl-cyclohexyl)-1,3,8-triaza-spiro[4.5]dec-1-en-4-one]
39% | CC1(C)OCC(Cn2ccc3c(/C=C/S(=O)(=O)N4CCC5(CC4)N=C(C4CCOCC4)NC5=O)cccc32)O1 (stereo not shown) [Compound 246, 8-{(E)-2-[1-(2,2-dimethyl-[1,3]dioxolan-4-ylmethyl)-1H-indol-4-yl]-ethenesulfonyl}-2-(tetrahydro-pyran-4-yl)-1,3,8-triaza-spiro[4.5]dec-1-en-4-one]
66% | Cc1cc(C(=O)N2CCCC2)ccc1/C=C/S(=O)(=O)N1CCC2(CC1)N=C(c1cccc(C(F)(F)F)c1F)NC2=O [Compound 248, 2-(2-fluoro-3-trifluoromethyl-phenyl)-8-{(E)-2-[2-methyl-4-(pyrrolidine-1-carbonyl)-phenyl]-ethenesulfonyl}-1,3,8-triaza-spiro[4.5]dec-1-en-4-one]
71% | O=C1NC(c2ccc(Cl)cc2Cl)=NC12CCN(S(=O)(=O)/C=C/c1cccc3c1ccn3C[C@H](O)CO)CC2 [Compound 249, 2-(2,4-dichloro-phenyl)-8-{(E)-2-[1-((S)-2,3-dihydroxy-propyl)-1H-indol-4-yl]-ethenesulfonyl}-1,3,8-triaza-spiro[4.5]dec-1-en-4-one]
62% | O=C1NC(c2ccc(Cl)cc2)=NC12CCN(S(=O)(=O)/C=C/c1cccc3c1ccn3C[C@H](O)CO)CC2 [Compound 250, 2-(4-chloro-phenyl)-8-{(E)-2-[1-((S)-2,3-dihydroxy-propyl)-1H-indol-4-yl]-ethenesulfonyl}-1,3,8-triaza-spiro[4.5]dec-1-en-4-one]
28% | O=C1NC(C2CCCCC2)=NC12CCN(S(=O)(=O)CC/C=C/c1cccc3[nH]ccc13)CC2 [Compound 251, 2-Cyclohexyl-8-[(E)-4-(1H-indol-4-yl)-but-3-ene-1-sulfonyl]-1,3,8-triaza-spiro[4.5]dec-1-en-4-one]
28% | O=C1NC(C2CCCCC2)=NC12CCN(S(=O)(=O)CCC/C=C/c1cccc3[nH]ccc13)CC2 [Compound 252, 2-Cyclohexyl-8-[(E)-5-(1H-indol-4-yl)-pent-4-ene-1-sulfonyl]-1,3,8-triaza-spiro[4.5]dec-1-en-4-one]
54% | O=C1NC(C2CCCCC2)=NC12CCN(S(=O)(=O)C/C=C/c1cccc3c1ccn3C[C@H](O)CO)CC2 [Compound 253, 2-Cyclohexyl-8-{(E)-3-[1-((S)-2,3-dihydroxy-propyl)-1H-indol-4-yl]-prop-2-ene-1-sulfonyl}-1,3,8-triaza-spiro[4.5]dec-1-en-4-one]
67% | Cc1c(/C=C/S(=O)(=O)N2CCC3(CC2)N=C(c2cccc(OC(F)(F)F)c2)NC3=O)cccc1OCCO [Compound 256, 8-{(E)-2-[3-(2-Hydroxy-ethoxy)-2-methyl-phenyl]-ethenesulfonyl}-2-(3-trifluoromethoxy-phenyl)-1,3,8-triaza-spiro[4.5]dec-1-en-4-one]
42% | CC(=O)N(CCO)c1ccc(C)c(/C=C/S(=O)(=O)N2CCC3(CC2)N=C(c2cccc(OC(F)(F)F)c2)NC3=O)c1 [Compound 257, N-(2-hydroxy-ethyl)-N-(4-methyl-3-{(E)-2-[4-oxo-2-(3-trifluoromethoxy-phenyl)-1,3,8-triaza-spiro[4.5]dec-1-ene-8-sulfonyl]-vinyl}-phenyl)-acetamide]
87% | Cc1cc(N2C(=O)CC[C@@H]2CO)cc(C)c1/C=C/S(=O)(=O)N1CCC2(CC1)N=C(c1cccc(OC(F)(F)F)c1)NC2=O [Compound 258, 8-{(E)-2-[4-((R)-2-hydroxymethyl-5-oxo-pyrrolidin-1-yl)-2,6-dimethyl-phenyl]-ethenesulfonyl}-2-(3-trifluoromethoxy-phenyl)-1,3,8-triaza-spiro[4.5]dec-1-en-4-one]
67% | CC(=O)N(CCO)c1ccc(/C=C/S(=O)(=O)N2CCC3(CC2)N=C(c2cccc(C(F)(F)F)c2F)NC3=O)c(C)c1 [Compound 259, N-(4-{(E)-2-[2-(2-Fluoro-3-trifluoromethyl-phenyl)-4-oxo-1,3,8-triaza-spiro[4.5]dec-1-ene-8-sulfonyl]-vinyl}-3-methyl-phenyl)-N-(2-hydroxy-ethyl)-acetamide]
70% | O=C1NC(C2CCCCC2)=NC12CCN(S(=O)(=O)CCc1cccc3[nH]c(=O)oc13)CC2 [Compound 261, 2-Cyclohexyl-8-[2-(2-oxo-2,3-dihydro-benzoxazol-7-yl)-ethanesulfonyl]-1,3,8-triaza-spiro[4.5]dec-1-en-4-one]
26% | O=C1NC(C2CCCCC2)=NC12CCN(S(=O)(=O)CCCCCc1cccc3[nH]ccc13)CC2 [Compound 262, 2-cyclohexyl-8-[5-(1H-indol-4-yl)-pentane-1-sulfonyl]-1,3,8-triaza-spiro[4.5]dec-1-en-4-one]
41% | O=C1NC(C2CCCCC2)=NC12CCN(S(=O)(=O)CCCCc1cccc3[nH]ccc13)CC2 [Compound 263, 2-cyclohexyl-8-[4-(1H-indol-4-yl)-butane-1-sulfonyl]-1,3,8-triaza-spiro[4.5]dec-1-en-4-one]
69% | CC(=O)N(C)c1cccc(CCS(=O)(=O)N2CCC3(CC2)N=C(c2cccc(OC(F)(F)F)c2)NC3=O)c1C [Compound 264, N-methyl-N-(2-methyl-3-{2-[4-oxo-2-(3-trifluoromethoxy-phenyl)-1,3,8-triaza-spiro[4.5]dec-1-ene-8-sulfonyl]-ethyl}-phenyl)-acetamide]
55% | CC(=O)N(C)c1ccc(C)c(CCS(=O)(=O)N2CCC3(CC2)N=C(c2cccc(OC(F)(F)F)c2)NC3=O)c1 [Compound 265, N-methyl-N-(4-methyl-3-{2-[4-oxo-2-(3-trifluoromethoxy-phenyl)-1,3,8-triaza-spiro[4.5]dec-1-ene-8-sulfonyl]-ethyl}-phenyl)-acetamide]
99% | Cc1cc(N2C(=O)CC[C@@H]2CO)ccc1CCS(=O)(=O)N1CCC2(CC1)N=C(c1cccc(C(F)(F)F)c1)NC2=O [Compound 268, 8-{2-[4-((R)-2-Hydroxymethyl-5-oxo-pyrrolidin-1-yl)-2-methyl-phenyl]-ethanesulfonyl}-2-(3-trifluoromethyl-phenyl)-1,3,8-triaza-spiro[4.5]dec-1-en-4-one]

Compound | cAMP production activity (%)
Cc1cc(OCCC(O)CO)ccc1/C=C/S(=O)(=O)N1CCC2(CC1)N=C(c1cccc(C(F)(F)F)c1F)NC2=O (stereo not shown) [Compound 247, 8-{(E)-2-[4-(3,4-Dihydroxy-butoxy)-2-methyl-phenyl]-ethenesulfonyl}-2-(2-fluoro-3-trifluoromethyl-phenyl)-1,3,8-triaza-spiro[4.5]dec-1-en-4-one] | 81%
Cc1c(/C=C/S(=O)(=O)N2CCC3(CC2)N=C(c2cccc(OC(F)(F)F)c2)NC3=O)cccc1OCCC(O)CO (stereo not shown) [Compound 254, 8-{(E)-2-[3-(3,4-Dihydroxy-butoxy)-2-methyl-phenyl]-ethenesulfonyl}-2-(3-trifluoromethoxy-phenyl)-1,3,8-triaza-spiro[4.5]dec-1-en-4-one] | 97%
Cc1ccc(OCCC(O)CO)cc1/C=C/S(=O)(=O)N1CCC2(CC1)N=C(c1cccc(OC(F)(F)F)c1)NC2=O (stereo not shown) [Compound 255, 8-{(E)-2-[5-(3,4-dihydroxy-butoxy)-2-methyl-phenyl]-ethenesulfonyl}-2-(3-trifluoromethoxy-phenyl)-1,3,8-triaza-spiro[4.5]dec-1-en-4-one] | 64%
Cc1c(CCS(=O)(=O)N2CCC3(CC2)N=C(c2cccc(OC(F)(F)F)c2)NC3=O)cccc1OCCC(O)CO (stereo not shown) [Compound 266, 8-{2-[3-(3,4-dihydroxy-butoxy)-2-methyl-phenyl]-ethanesulfonyl}-2-(3-trifluoromethoxy-phenyl)-1,3,8-triaza-spiro[4.5]dec-1-en-4-one] | 81%
Cc1ccc(OCCC(O)CO)cc1CCS(=O)(=O)N1CCC2(CC1)N=C(c1cccc(OC(F)(F)F)c1)NC2=O (stereo not shown) [Compound 267, 8-{2-[5-(3,4-dihydroxy-butoxy)-2-methyl-phenyl]-ethanesulfonyl}-2-(3-trifluoromethoxy-phenyl)-1,3,8-triaza-spiro[4.5]dec-1-en-4-one] | 42%
